The nature of data set [1]: Pharmacokinetic studies of THR-123 and GPR-294 i.v. and s.c. (FIG. 13, FIGS. 5-8). It counts as in vivo. As to conditions: in vivo; s.c. versus i.v., FIG. 13; read-out: bioavailable by sub-cutaneous administration. The method, then: A stock solution of THR-123 was prepared at 250 μg/mL in DMSO. This solution was quantitatively added to blank mouse plasma to generate a calibration curve. The linear range was from 0.25 to 250 ng/mL. A 175 μL aliquot of plasma from removed from each calibrant tube and processed using solid phase extraction (SPE). Study samples were first diluted with blank control mouse plasma, and 175 μL was aliquoted for processing using SPE. An internal standard working solution (ISWS) was added to each calibrant and study sample (GPR-227 at 100 ng/mL in water). Plasma proteins were precipitated with 175 μL of methanol with 0.5% acetic acid (v/v). After centrifugation at 14,800 RPM for 10 minutes, a 300 μL aliquot of supernatant was diluted in water with 4% phosphoric acid (v/v). The entire diluted sample was extracted by SPE using a Waters Oasis HLB 96-well μElution plate. Samples were washed twice using a solution of acidified water (0.1% TFA, v/v) and 15% MeOH in water (v/v). Purified extracts were eluted into a 96-well collection plate using 40 μL of elution solvent. Standards and study samples were injected onto a Thermo Q-exactive LC-MS/MS system. Chromatographic separation was performed using a reversed-phase C18 HPLC column (Waters CSH C18, 50×2.1 mm, 2.5 μm). Analyte and internal standard were detected using the targeted selected ion monitoring (tSIM) scan mode. Calibration curves were generated by using a weighted (1/concentration^2) linear regression of the peak area ratios (analyte/internal standard) versus the nominal concentration of the calibration standards. The concentration of the analyte in the study samples was determined by back-calculating the peak area ratios obtained using the linear regression and applying the appropriate dilution factors.
The study described herein involved single (mouse) or multiple (rat) blood collections after test article administration. Test articles are given by oral (PO), intravenous (IV), subcutaneous (SC) or intraperitoneal (IP) routes. All animals have a five day acclimatization period before dosing. Body weights are recorded prior to dosing. […]

Data set [2] is described as follows: Pharmacokinetics of GPR-405 given at 1 mg/kg sc in CD1 mice. It counts as in vivo, mouse. The method, then:
The study described herein involved single (mouse) or multiple (rat) blood collections after test article administration. Test articles are given by oral (PO), intravenous (IV), subcutaneous (SC) or intraperitoneal (IP) routes. All animals have a five day acclimatization period before dosing. Body weights are recorded prior to dosing. For mouse PK, 3 animals per group per time point are used (terminal bleed). For rats, multiple blood samplings per animal (adequately spaced in time) are taken. At the end of the study, all animals are euthanized by CO2 and final blood sample was collected via cardiac puncture.
Preparations are performed under a laminar flow hood using clean procedures. The formulations are kept at in a refrigerator set to maintain 4° C. before use. The dose volume for each animal is based on the most recent body weight measurement.
for PO administration, animal has either restricted access to food until the next day (12 h) before dosing or are allowed free access to food (depending on whether the PK will be done on fasted or fed animals). In all cases, animals has access to water ad libidum. PO dosing is done by gavage using a curved gavage needle (with rounded tip). All animals are observed for few seconds after injection to make sure there are no side effects. For IV administration, dosing (mice and rat) is done by the tail vein. Compound administration is done by slow (15-60 sec) bolus or by slow IV infusion (up to 1 h) using a calibrated syringe pump. For subcutaneous (dorsal region) and intraperitoneal injections, dosing is done with the appropriate needle and volume as per IACUC guidelines. GPR-405 was administered once by SC injection to each animal in the test group using a hypodermic needle attached to a syringe. No dose was administered to control animals.
Sampling is done via the tail, jugular or saphenous vein. Typical time for blood collection for PK are Pre, 5, 15, 30 minutes, 1 h, 2 h, 4 h, 8 h, 24 h. For mice, animals are terminated at each collection (cardiac puncture post-euthanasia). For rats, 200 μl are collected at each time point (max 3 time points per rat in 24 h). Plasma harvested from blood is mixed with 8.5% phosphoric acid (2% v/v of plasma). All plasma samples collected are stored in a freezer, set to maintain −80° C. until bioanalysis. At necropsy, tissues, organs and/or biological fluid are collected, as needed, for analysis. Urine collection is done using metabolic cages when required.
A stock solution of the test article is prepared at 250 μg/mL in DMSO. This solution is quantitatively added to blank mouse or rat plasma to generate a calibration curve. The linear range is from 0.25 to 250 ng/mL. A 175 μL aliquot of plasma is removed from each calibrant tube and processed using solid phase extraction (SPE). Study samples are first diluted with blank control mouse or rat plasma, and 175 μL is aliquoted for processing using SPE. An internal standard working solution (ISWS) is added to each calibrant and study sample (GPR-227 at 100 ng/mL in water). Plasma proteins are precipitated with 175 μL of methanol with 0.5% acetic acid (v/v). After centrifugation at 14,800 RPM for 10 minutes, a 300 μL aliquot of supernatant is diluted in water with 4% phosphoric acid (v/v). The entire diluted sample is extracted by SPE using a Waters Oasis HLB 96-well μElution plate. Samples are washed twice using a solution of acidified water (0.1% TFA, v/v) and 15% MeOH in water (v/v). Purified extracts are eluted into a 96-well collection plate using 40 μL of elution solvent. Standards and study samples are injected onto a Thermo Q-exactive LC-MS/MS system. Chromatographic separation is performed using a reversed-phase C18 HPLC column (Waters CSH C18, 50×2.1 mm, 2.5 μm). Analyte and internal standard are detected using the targeted selected ion monitoring (tSIM) scan mode. […]

The mark [3] stands for this setting: mouse, in vivo, 1 mg/kg sc in CD1 mice.

Where “and” joins values, the source holds several entries; their conditions need not be identical. Equal entries are not always repeated. Where two headings read alike, the source gives them in different places. Positions of bridges follow the written chain, without caps; N, C: chain ends. Non-standard residues stand in square brackets, D forms with d. Residues, ends and D or L forms follow the SMILES beside them.

The term Tmax denotes the time from dosing to the highest level. A word on the AUC(0-inf): it is the area under the concentration-time curve extrapolated to infinity. A higher AUC(0-inf) goes with high exposure. In general, AUC(0-t) refers to the area under the concentration-time curve up to a stated or last time point. For orientation: Cmax means the highest concentration seen after dosing. As a reminder, the MRT is a mean duration of stay, worked out from the concentration-time curve.

In the case of `CC(C)C[C@@H]1NC(=O)[C@H](C(C)C)NC(=O)[C@H](CC(N)=O)NC(=O)[C@H](CO)NC(=O)[C@H](CO)NC(=O)[C@H](CC(=O)O)NC(=O)[C@H](CC(=O)O)NC(=O)[C@H](Cc2ccccc2)NC(=O)[C@H](Cc2ccc(O)cc2)NC(=O)[C@@H](N)CSSC[C@@H](C(=O)N[C@@H](CCCCN)C(=O)N[C@@H](CCCCN)C(=O)N[C@@H](Cc2ccc(O)cc2)C(=O)N[C@@H](CCCNC(=N)N)C(=O)N[C@@H](CO)C(=O)O)NC1=O` [THR-123, Cys-Tyr-Phe-Asp-Asp-Ser-Ser-Asn-Val-Leu-Cys-Lys-Lys-Tyr-Arg-Ser] (H-CYFDDSSNVLCKKYRS-OH; disulfide 1-11), the bioavailability in data set [1] was 81%.

As to `CC(C)C[C@@H]1NC(=O)[C@H](C(C)C)NC(=O)[C@H](CCC(N)=O)NC(=O)[C@H](CO)NC(=O)[C@H](CO)NC(=O)[C@H](CC(N)=O)NC(=O)[C@H](Cc2ccccc2)NC(=O)[C@H](Cc2ccc(O)cc2)NC(=O)[C@H](Cc2ccc(O)cc2)NC(=O)[C@@H](N)CSSC[C@@H](C(=O)N[C@@H](CCCCN)C(=O)N[C@@H](CCCNC(=N)N)C(=O)N[C@H](Cc2ccc(O)cc2)C(=O)N[C@@H](CCCNC(=N)N)C(=O)N[C@@H](CO)C(=O)O)NC1=O` [GPR-405, Cys-Tyr-Tyr-Phe-Asn-Ser-Ser-Gln-Val-Leu-Cys-Lys-Arg-(D)Tyr-Arg-Ser] (H-CYYFNSSQVLCKR[dY]RS-OH; disulfide 1-11), in data set [2] (1 mg/kg sc in CD1 mice), the “AUMC(0-t)” value worked out at 196073 ng*min^2/ml, the “CL*F” value turned out to be 3.83 mL/min, the “CL/kg*F” value came out at 120 mL/min/kg and the KeI worked out at 0.04 min⁻¹. Moreover, in data set [2] (1 mg/kg sc in CD1 mice), the time to peak (Tmax) amounted to 5 min, the “Vd*F” value is 172.28 mL and the Vss was 90.22 mL. The “Terminal T1/2” value in data set [2] (1 mg/kg sc in CD1 mice, based on terminal decay rate) was 31.21 min. For the same compound, in data set [2] (1 mg/kg sc in CD1 mice, log-linear fit of 30, 60, 240 min), the “K′ (terminal decay rate)” value was 0.022 min⁻¹. Besides, the “clearance compared with renal clearance” value in data set [2] (1 mg/kg sc in CD1 mice, mouse GFR approximately 10 ml/min/kg) was “about ten times greater than renal clearance”. The half-life in data set [2] (mouse, in vivo, sc, 1 mg/kg, 1 mg/kg sc in CD1 mice, based on terminal decay rate, read-out: Terminal T1/2) was roughly 30 min. Also, the half-life in data set [2] (mouse, in vivo, sc, 1 mg/kg, 1 mg/kg sc in CD1 mice, read-out: Biological T1/2 (overall half-life)) is roughly 16 min. Also, the time of peak concentration (Tmax) in data set [2] (mouse, in vivo, sc, 1 mg/kg, 1 mg/kg sc in CD1 mice, read-out: Tmax) is less than 5 min. In data set [2] (setting [3]), this compound had a total exposure AUC(0-inf) of 142 ng·h/mL, an AUC(0-t) of 142 ng·h/mL, a peak concentration (Cmax) of 504 ng/mL and an MRT of 23.1 min. The bioavailability in data set [2] (mouse, in vivo, sc, mice, preliminary data) was roughly 60%. Also, the level at 5 min in data set [2] (mouse, plasma, 1 mg/kg sc, CD1 mice, 5 min, read-out: Mean Concentration) amounted to 504 ng/mL. In addition, the level at 0.25 h in data set [2] (mouse, plasma, 1 mg/kg sc, CD1 mice, 15 min, read-out: Mean Concentration) was found to be 117 ng/mL. In data set [2] (mouse, plasma, 1 mg/kg sc, CD1 mice, 30 min, read-out: Mean Concentration), the level at 0.5 h came out at 68.8 ng/mL. Further, the level at 1 h in data set [2] (mouse, plasma, 1 mg/kg sc, CD1 mice, 60 min, read-out: Mean Concentration) was 15.9 ng/mL. Besides, in data set [2] (mouse, plasma, 1 mg/kg sc, CD1 mice, 240 min, read-out: Mean Concentration), the level at 4 h stood at 0.4 ng/mL. Also, the “Final Concentration (individual mouse)” value in data set [2] (plasma, 1 mg/kg sc, CD1 mice, 5 min, 1 mg/kg) was 596.4 ng/ml and 411.9 ng/ml and 62.4 (outlier) ng/ml. Further, in data set [2] (plasma, 1 mg/kg sc, CD1 mice, 15 min, 1 mg/kg), the “Final Concentration (individual mouse)” value was 114.2 ng/mL and 118.3 ng/mL and 118.4 ng/mL. For the same compound, the “Final Concentration (individual mouse)” value in data set [2] (plasma, 1 mg/kg sc, CD1 mice, 30 min, 1 mg/kg) was 49.0 ng/mL and 88.6 ng/mL. For the same compound, in data set [2] (plasma, 1 mg/kg sc, CD1 mice, 60 min, 1 mg/kg), the “Final Concentration (individual mouse)” value is 23.0 ng/mL and 11.9 ng/mL and 12.8 ng/mL. Moreover, the “Final Concentration (individual mouse)” value in data set [2] (plasma, 1 mg/kg sc, CD1 mice, 240 min) came out at 0.4 ng/mL.
